Columns and labels:
[1] = Liquid; for viscosity: Falling or rolling sphere viscometry; for mass density: Vibrating tube method
[2] = xn = mol fraction of the nth substance listed; details: 100 kPa, Liquid, x2 = 0; for mass density: Vibrating tube method; for viscosity: Falling or rolling sphere viscometry

CO [methanol]
[1], 100 kPa
Details | mass density [kg/m3] | viscosity [mPa·s]
290.15 K | 797.3 | 0.6069
293.15 K | 793.5 | 0.5853
295.15 K | 790.8 | 0.5571
298.15 K | 786.8 | 0.5446
303.15 K | 781.4 | 0.5122
308.15 K | 777.3 | 0.4794
313.15 K | 772.1 | 0.4508
318.15 K | 767.7 | 0.4317
323.15 K | 762.1 | 0.4051

CO [methanol] + CCCCCCCCCCCCCC[P+](CCCCCC)(CCCCCC)CCCCCC.[Cl-]
[2]
Details | mass density [kg/m3] | viscosity [mPa·s]
290.15 K | 797.3 | –
293.15 K | 793.5 | –
295.15 K | 790.8 | 0.557
298.15 K | 786.8 | 0.544
303.15 K | 781.4 | 0.512
308.15 K | 777.3 | 0.479
313.15 K | 772.1 | 0.451

CCCCCCCCCCCCCC[P+](CCCCCC)(CCCCCC)CCCCCC.[Cl-] [trihexyl(tetradecyl)phosphonium chloride]
[1], 101.33 kPa
Details | mass density [kg/m3] | viscosity [mPa·s]
290.15 K | 897.5 | –
293.15 K | 895.8 | 1996
295.15 K | 894.6 | 1996
298.15 K | 892.8 | 1683
303.15 K | 889.8 | 1174
308.15 K | 886.9 | 824.1
313.15 K | 883.9 | 593.7
318.15 K | 880.8 | 399.9
323.15 K | 878 | 325.9

Source: the NIST ThermoML archive (doi:10.1016/j.jct.2015.09.030)
